Patent publication US20090018194A1, “Use of antimicrobial agents derived from alliaceous plants for the prevention and control of crop diseases, post-harvest rot and as environmental disinifectant products” (DMC Research Center, S.L., priority 2007, published 2009)

Key:
Fusarium spp. = test: field tests on affected asparagus, Fusarium spp. in the soil; format: in vivo; settings: for % Reduction / % elimination: soil, 60 days after application, compared to untreated control; for effectiveness of the application (in words): Fusarium spp. in asparagus, disinfection of agricultural soil
Procedure: The treatment doses used were 250, 500 and 1000 ppm of both active principles (PT and PTSO), and the initial incidence of the pathogen was compared with its presence 60 days after its application.
To analyze the growth of the crops infected by Fusarium spp. after the treatments, root and soil samples were taken and tests were performed in the laboratory to investigate the incidence of the pathogen in the roots and soil. The cultivation media used were potato dextrose agar and rose bengal agar (to prevent the invasive character of the Mucoralean fungi).
The soil analysis was conducted by sequential dilutions of the soils in physiological serum with a subsequent sowing in the above mentioned media. The analysis of the roots was performed after dissection of the infected tissues, which were deposited in triplicate on filter paper located above both media, and their evolution over time was studied.
The data are expressed as a percentage of elimination and reduction as a function of the treatment dose compared to the untreated control samples.

[1] = tested on: plants inoculated with mycorrhizal fungi; settings: in vivo
[2] = tested on: Pseudomonas aeruginosa ATCC 9027; test: agar diffusion test with impregnated cellulose discs; format: cell-based; settings: incl. 6 mm disc
post-harvest rot = post-harvest rot of oranges originating directly from the field (not inoculated); format: in vivo; settings: for % of fruit affected: oranges refrigerated for 28 days at 5° C., 200 fruits not inoculated; for reduction of the quantity of fruit affected compared to the untreated fruit: specified doses, end of the refrigeration period (28 days at 5° C.)
Procedure: Once the oranges had been artificially contaminated, the treatments were conducted by immersing the oranges in solutions of PTS and PTSO prepared at doses of 1600 and 2500 ppm, and were stored at 20° C.
The assessment of the effectiveness of PTS and PTSO comprised counting of the number of fruits affected by rot in the inoculated zone, to determine the percentage of fruit affected for each treatment and fungus inoculated, and expressing this effectiveness as a percentage of reduction of the affected fruit.
On the basis of the results obtained by the application of PTS and PTSO to oranges of the Navelina variety originating directly from the field, both products, applied in the specified doses, are effective in the control of post-harvest rot. Both PTS and PTSO in turn reduce by 50% the quantity of fruit affected at the end of the refrigeration period (28 days at a temperature of 5° C.) compared to the untreated fruit, as a result of which they are an effective alternative to the synthetic treatments conventionally used.

R. stolonifer = test: disinfection of artificially contaminated containers by drencher; parameters: species or system Rhizopus stolonifer; settings: drencher 30 seconds
Procedure: A test of the disinfection of containers (fruit boxes and crates) was conducted in which a level of artificial contamination was created by means of controlled inoculation, with the objective of determining optimum doses of application to achieve a satisfactory disinfection. First the containers (made of wood and plastic) were disinfected with sodium hypochlorite, and they were then artificially contaminated via controlled inoculations with different fungi characteristic of the fruit and vegetable processing sector. For this purpose, isolated wild strains were used which, after sporulation, were collected to create a suspension of mixed spores of various fungi (Penicillium expansum, Penicillium italicum, Penicillium digitarum and Alternario alternata) and, separately in simultaneous tests (as a result of its higher rate of growth and its invasive character), a suspension of Rhizopus stolonifer. […] After this fogging, the containers were allowed to dry. The containers were then sampled to determine the level of initial contamination achieved (by means of contact plates containing Rose Bengal agar). The containers were then treated in a pilot line […]. The hold time of the containers under the showers was 30 seconds, and the test doses were 750 ppm and 1050 ppm for PTS and 2000 ppm and 5000 ppm in the case of PTSO. After exiting the showers, the treated containers were allowed to dry, and were again sampled using contact plates with Rose Bengal agar to determine the final level of contamination. The sampling unit was 3 containers and 3 plates per repetition.

Penicillium digitatum = test: post-harvest rotting of inoculated oranges (Navelina), immersion treatment; format: in vivo
Procedure: (§1) This example considers the effectiveness of the active natural principles PTS and PTSO in two different doses for the control of post-harvest rotting of oranges ([…] variety), caused by controlled artificial inoculation with the fungi Penicillium digitatum, Penicillium expansum, Phytophthora citrophthora and Geotrichum candidum, the principal pathogens of this fruit. The inoculation of the oranges was carried out with suspensions of spores of the different wild fungal strains selected, according to the methodology described below. The first step was the isolation and identification of the fungal strains used in the study. The strains of filamentous fungi used in these tests (Penicillium digitatum, Penicillium italicum and Phytophthora citrophthora) were isolated from oranges affected by rot. In these isolation processes, it was not possible to detect any strain belonging to Geotrichum candidum, as a result of which it was necessary to obtain the latter substance from the Spanish Collection of Standard Cultures, where it is identified by reference CECT 1102. […] To promote the implantation of the inoculum of Geotrichum candidum, 200 ppm of cyclohexamide was added to the inoculum prior to its inoculation. […] The assessment of the effectiveness of PTS and PTSO comprised counting of the number of fruits affected by rot in the inoculated zone, to determine the percentage of fruit affected for each treatment and fungus inoculated, and expressing this effectiveness as a percentage of reduction of the affected fruit.

Penicillium italicum = test: as above; format: in vivo
Procedure: as §1

[3] = tested on: the most characteristic diseases that affect these crops; test: in vivo tests against pre-harvest diseases in various crops (Table 7); settings: pre-harvest diseases and pathogens listed in Table 7
Procedure: B. Likewise, numerous tests were conducted “in vivo” to determine the effectiveness of the products for pre- and post-harvest treatments, and also as disinfectant agents for agricultural soils and facilities in the food processing industries.
In post-harvest treatments, tests were conducted in strawberries, citrus fruits, stone fruits and tropical fruits. Tests were also conducted on vegetable plants in a greenhouse (tomatoes, melons, zucchini, peppers, cucumbers and green beans).

[4] = 1600 ppm, 5 days of treatment at 20° C., title: treated with PTSO
[5] = 1600 ppm, 7 days of treatment at 20° C., title: treated with PTSO
[6] = 2500 ppm, 5 days of treatment at 20° C., title: treated with PTSO
[7] = 2500 ppm, 7 days of treatment at 20° C., title: treated with PTSO
[8] = 1600 ppm, 4 days at 20° C., title: treated with PTSO
[9] = 2500 ppm, 4 days at 20° C., title: treated with PTSO

`CCCSS(=O)(=O)CCC` [PTSO, Propyl Propyl Thiosulfonate] was tested. Which “% Reduction” value (Fusarium spp.; 250 ppm) did it give?
The value was 15%.

And the “% elimination” value (Fusarium spp.; 250 ppm)?
Its value is 85%.

And the “% Reduction” value (Fusarium spp.; 500 ppm)?
The value was 25%.

What about the “% elimination” value (Fusarium spp.; 500 ppm) of the same compound?
Its value is 75%.

What about the “% Reduction” value (Fusarium spp.; 1000 ppm) of the same compound?
Its value is 0%.

What about the “% elimination” value (Fusarium spp.; 1000 ppm) of the same compound?
Its value is 100%.

What about the “effectiveness of the application (in words)” value (Fusarium spp.) of the same compound?
The value was “highly effective”.

What about the “phytotoxicity to the plant” value [1] of the same compound?
Its value is “did not suffer phytotoxicity”.

What about the “diameter of the microbial inhibition halo” value ([2]; 60 ppm) of the same compound?
Its value is 6.5 mm.

What about the “diameter of the microbial inhibition halo” value ([2]; 125 ppm) of the same compound?
Its value is 8 mm.

What about the “diameter of the microbial inhibition halo” value ([2]; 250 ppm) of the same compound?
Its value is 9 mm.

And the “diameter of the microbial inhibition halo” value ([2]; 500 ppm)?
Its value is 10 mm.

And the “diameter of the microbial inhibition halo” value ([2]; 1000 ppm)?
Its value is 12 mm.

And the “% of fruit affected” value (post-harvest rot; 2500 ppm)?
The value was 15%.

What about the “reduction of the quantity of fruit affected compared to the untreated fruit” value (post-harvest rot) of the same compound?
Its value is 50%.

What about the “Reduction of the population (%)” value (R. stolonifer; 2000 ppm, Plastic container) of the same compound?
The value was 100%.

What about the “Reduction of the population (%)” value (R. stolonifer; 2000 ppm, Wood container) of the same compound?
Its value is 96%.

What about the “Reduction of the population (%)” value (R. stolonifer; 5000 ppm, Plastic container) of the same compound?
Its value is 100%.

And the “Reduction of the population (%)” value (R. stolonifer; 5000 ppm, Wood container)?
The value was 98%.

What about the “% Reduction” value (Penicillium digitatum; [4]) of the same compound?
The value was 72%.

What about the “% Reduction” value (Penicillium digitatum; [5]) of the same compound?
The value was 40%.

What about the “% Reduction” value (Penicillium digitatum; [6]) of the same compound?
Its value is 85%.

And the “% Reduction” value (Penicillium digitatum; [7])?
The value was 57%.

What about the “% Reduction” value (Penicillium italicum; [8]) of the same compound?
Its value is 80%.

What about the “% Reduction” value (Penicillium italicum; [9]) of the same compound?
The value was 85%.

And the “control capability against the most characteristic diseases of the crops (in words)” value [3]?
The value was “high control capability”.

With `CCCS[S+]([O-])CCC` (stereo not drawn) [PTS, Propyl Propyl Thiosulfinate] as the compound, how does the “% Reduction” value (Fusarium spp.; 250 ppm) read?
Its value is 0%.

And the “% elimination” value (Fusarium spp.; 250 ppm)?
The value was 100%.

What about the “% Reduction” value (Fusarium spp.; 500 ppm) of the same compound?
The value was 12.5%.

What about the “% elimination” value (Fusarium spp.; 500 ppm) of the same compound?
Its value is 87.5%.

And the “% Reduction” value (Fusarium spp.; 1000 ppm)?
Its value is 0%.

What about the “% elimination” value (Fusarium spp.; 1000 ppm) of the same compound?
The value was 100%.

What about the “effectiveness of the application (in words)” value (Fusarium spp.) of the same compound?
The value was “highly effective”.

What about the “phytotoxicity to the plant” value [1] of the same compound?
Its value is “did not suffer phytotoxicity”.

What about the “diameter of the microbial inhibition halo” value ([2]; 60 ppm) of the same compound?
Its value is 8 mm.

What about the “diameter of the microbial inhibition halo” value ([2]; 125 ppm) of the same compound?
The value was 9 mm.

And the “diameter of the microbial inhibition halo” value ([2]; 250 ppm)?
Its value is 10 mm.

And the “diameter of the microbial inhibition halo” value ([2]; 500 ppm)?
The value was 12 mm.

And the “diameter of the microbial inhibition halo” value ([2]; 1000 ppm)?
The value was 14 mm.

What about the “% of fruit affected” value (post-harvest rot; 1666 ppm) of the same compound?
Its value is 10%.

What about the “reduction of the quantity of fruit affected compared to the untreated fruit” value (post-harvest rot) of the same compound?
The value was 50%.

What about the “Reduction of the population (%)” value (R. stolonifer; 750 ppm, Plastic container) of the same compound?
Its value is 100%.

What about the “Reduction of the population (%)” value (R. stolonifer; 750 ppm, Wood container) of the same compound?
Its value is 94%.

What about the “Reduction of the population (%)” value (R. stolonifer; 1050 ppm, Plastic container) of the same compound?
The value was 99%.

And the “Reduction of the population (%)” value (R. stolonifer; 1050 ppm, Wood container)?
Its value is 100%.

What about the “% Reduction” value (Penicillium digitatum; [4]) of the same compound?
The value was 72%.

And the “% of fruit affected” value (Penicillium digitatum; [4])?
The value was 28%.

What about the “% Reduction” value (Penicillium digitatum; [5]) of the same compound?
The value was 40%.

What about the “% of fruit affected” value (Penicillium digitatum; [5]) of the same compound?
Its value is 60%.

What about the “% Reduction” value (Penicillium digitatum; 1600 ppm, 14 days at 20° C.) of the same compound?
Its value is 0%.

What about the “% of fruit affected” value (Penicillium digitatum; 1600 ppm, 14 days at 20° C.) of the same compound?
The value was 100%.

What about the “% Reduction” value (Penicillium digitatum; 1666 ppm, 7 days at 20° C.) of the same compound?
Its value is 23%.

And the “% of fruit affected” value (Penicillium digitatum; 1666 ppm, 7 days at 20° C.)?
Its value is 77%.

And the “% Reduction” value (Penicillium digitatum; [6])?
Its value is 85%.

And the “% of fruit affected” value (Penicillium digitatum; [6])?
The value was 15%.

What about the “% Reduction” value (Penicillium digitatum; 2500 ppm, 7 days at 20° C.) of the same compound?
The value was 53%.

And the “% of fruit affected” value (Penicillium digitatum; 2500 ppm, 7 days at 20° C.)?
Its value is 47%.

And the “% Reduction” value (Penicillium digitatum; [7])?
Its value is 57%.

And the “% of fruit affected” value (Penicillium digitatum; [7])?
The value was 43%.

What about the “% of fruit affected” value (Penicillium digitatum; 2500 ppm, 14 days at 20° C.) of the same compound?
The value was 36%.

What about the “% Reduction” value (Penicillium italicum; [8]) of the same compound?
Its value is 80%.

And the “% of fruit affected” value (Penicillium italicum; [8])?
The value was 20%.

What about the “% Reduction” value (Penicillium italicum; 1600 ppm, 14 days at 20° C.) of the same compound?
The value was 72%.

And the “% of fruit affected” value (Penicillium italicum; 1600 ppm, 14 days at 20° C.)?
Its value is 28%.

What about the “% of fruit affected” value (Penicillium italicum; 1666 ppm, 7 days at 20° C.) of the same compound?
The value was 0%.

What about the “% Reduction” value (Penicillium italicum; [9]) of the same compound?
The value was 85%.

What about the “% of fruit affected” value (Penicillium italicum; [9]) of the same compound?
The value was 15%.

What about the “% Reduction” value (Penicillium italicum; 2500 ppm, 7 days at 20° C.) of the same compound?
Its value is 100%.

What about the “% of fruit affected” value (Penicillium italicum; 2500 ppm, 7 days at 20° C.) of the same compound?
Its value is 0%.

What about the “% Reduction” value (Penicillium italicum; 2500 ppm, 14 days at 20° C.) of the same compound?
Its value is 85%.

What about the “% of fruit affected” value (Penicillium italicum; 2500 ppm, 14 days at 20° C.) of the same compound?
Its value is 15%.

And the “control capability against the most characteristic diseases of the crops (in words)” value [3]?
Its value is “high control capability”.
